Data on 4 molecules can be found in paper PMC6099841, “New Chromane-Based Derivatives as Inhibitors of Mycobacterium tuberculosis Salicylate Synthase (MbtI): Preliminary Biological Evaluation and Molecular Modeling Studies” (Molecules : A Journal of Synthetic Chemistry and Natural …, 2018).

Molecules are shown by their SMILES. Read-outs that look alike come from different tables or passages of the source.

What all share (assay): biochemical
For assay [1], the target named is T1, salicylate synthase MbtI (Mycobacterium tuberculosis, UniProt P9WFX1).
The target of assay [2] is T1, salicylate synthase MbtI. The source holds these as a separate data set.
The target in assay [3] is T1, salicylate synthase MbtI. Conditions: read-out: MbtI Residual Activity at 100 μM.

T1 sequence (P9WFX1 whole entry): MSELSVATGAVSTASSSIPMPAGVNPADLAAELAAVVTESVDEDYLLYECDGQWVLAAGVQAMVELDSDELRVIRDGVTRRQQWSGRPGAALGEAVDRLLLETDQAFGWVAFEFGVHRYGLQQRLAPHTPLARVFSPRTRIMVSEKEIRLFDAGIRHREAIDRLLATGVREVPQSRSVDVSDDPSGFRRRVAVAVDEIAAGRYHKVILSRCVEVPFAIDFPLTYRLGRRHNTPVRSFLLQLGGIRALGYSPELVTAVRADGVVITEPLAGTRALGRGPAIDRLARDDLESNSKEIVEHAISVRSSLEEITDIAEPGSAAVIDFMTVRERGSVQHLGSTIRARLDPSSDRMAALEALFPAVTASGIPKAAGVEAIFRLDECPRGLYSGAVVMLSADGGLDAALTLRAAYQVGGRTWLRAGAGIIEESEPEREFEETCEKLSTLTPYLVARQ

Turning to `CC=C(Oc1cccc(C(=O)O)c1O)C(=O)O` [I, (1-carboxyprop-1-enyloxy)-2-hydroxybenzoic acid], the IC50 in assay [1] turned out to be 11.6 ± 2.4 µM.

As for `CC1CC(=O)c2c(cc(O)cc2C(=O)O)O1` (stereo not shown) [compound 1, 7-Hydroxy-2-methyl-4-oxo-3,4-dihydro-2H-benzopyran-5-carboxylic acid], the IC50 in assay [2] (read-out: IC50) came to 55.8 ± 4.2 µM.

Take `O=C(O)c1cc(O)cc2c1C(=O)CCO2` [compound 2, 7-Hydroxy-4-oxo-3,4-dihydro-2H-benzopyran-5-carboxylic acid]: the IC50 in assay [2] (read-out: MbtI IC50) came to 61.3 ± 5.3 µM.

For `CC1CCc2c(cc(O)cc2C(=O)O)O1` (stereo not shown) [compound 5, 7-Hydroxy-2-methylchroman-5-carboxylic acid], the remaining activity at 100 µM in assay [3] amounted to 50.1 ± 7.1%.

Usually IC50 stands for the point on the concentration scale where inhibition reaches its midpoint.
